Values of other authors as cited in publication PMC9370779, “Traditional Medicinal Uses, Phytochemistry, Biological Properties, and Health Applications of Vitex sp” (Plants, 2022).
“Also recorded” adds a separate entry of the source.

Key:
[1] = test system: NO production; set-up: method as in PMID 25245917; conditions: at 80 μM, the highest concentration tested
[2] = test system: LPS-induced NO production in murine microglial cell BV-2 cells; set-up: method as in PMID 31448638; conditions: read-out: inhibition of LPS-stimulated NO production, IC50
[3] = test system: BV-2 cells; set-up: method as in PMID 31448638
[4] = test system: cervical cancer (HeLa) cell; set-up: method as in PMID 19156599; conditions: range given for both compounds together; read-out: inhibition of HeLa cell proliferation, IC50
[5] = test system: leukemia (HL-60)
[6] = test system: gastric cancer (SGC-7901)
[7] = test system: pancreatic cancer (PANC-01)
[8] = test system: esophageal carcinoma (Eca-109)
[9] = test system: DOR; set-up: method as in PMID 21163339
[10] = test system: MOR; set-up: method as in PMID 21163339
[11] = biological target: dopamine-D2-receptor; set-up: method as in PMID 10865453
[12] = test system: RAW 264.7 macrophages; set-up: method as in PMID 25245917; conditions: at 40 μM
[13] = test system: severe myelogenous leukemia tumor (K562) cells; set-up: method as in doi:10.1016/j.jscs.2021.101298; conditions: read-out: cytotoxicity against K562 cells, IC50 value

Compound: cannabifolin F [Compound 146]
- inhibition of NO production [1]: < 50%

Compound: O=C(O)CC1CCC(=O)C1CC=CCCOC1OC(COC(=O)C=Cc2ccc(O)c(O)c2)C(O)C(O)C1O (stereo not shown) [Compound 159, 12-hydroxyjasmonic acid (6-O-caffeoyl)glucoside]
- IC50 [2]: > 100 µM
- cytotoxic effect on BV-2 cells [3]: no cytotoxic effect; also recorded: no effect of cytotoxicity

Compound: CC(=O)O[C@H]1CC[C@@]2(C)[C@@H](CC[C@@H](C)[C@]2(O)CCc2ccoc2)C1(C)C [Compound 56, Vitetrifolin H]
- IC50 [4]: 4 to 28 µM

Compound: CC1C(C=O)CCC2(C(=O)O)CCC3(C)C(=CCC4C5(C)CCC(O)C(C)(C)C5CCC43C)C12 (stereo not drawn) [Compound 147, 3β-hydroxy-30-al-urs-12-en-28-oic acid]
- cytotoxic activity against HL-60 [5]: Exhibited cytotoxic activity against HL-60, SGC-7901, PANC-01, and Eca-109 cell lines
- cytotoxic activity against SGC-7901 [6]: Exhibited cytotoxic activity against HL-60, SGC-7901, PANC-01, and Eca-109 cell lines
- cytotoxic activity against PANC-01 [7]: Exhibited cytotoxic activity against HL-60, SGC-7901, PANC-01, and Eca-109 cell lines
- cytotoxic activity against Eca-109 [8]: Exhibited cytotoxic activity against HL-60, SGC-7901, PANC-01, and Eca-109 cell lines

Compound: CC(=O)O[C@@H]1C[C@@H](C)[C@](O)(CCC2=CC(=O)OC2O)[C@@]2(C)CCCC(C)(C)[C@H]12 (stereo partly shown) [Compound 58, Viteagnusin I]
- activity on opioid receptor assay DOR [9]: No activity was shown on opioid receptor assays DOR and MOR.
- activity on opioid receptor assay MOR [10]: No activity was shown on opioid receptor assays DOR and MOR.

Compound: C=CC(C)(O)CCC1=C(C)C(OC(C)=O)C(OC(C)=O)C2C(C)(C)CCCC12C (stereo not drawn) [Compound 52, 6β,7β-diacetoxy-13-hydroxy-labda-8,14-diene]
- affinity to the dopamine-D2-receptor, IC50 value [11]: It showed strong affinity to the dopamine-D2-receptor with IC50 value of 15 μg/mL.

Compound: CC1(C)CC[C@@]23CC[C@@]4(C)[C@]5(C)CC[C@H]6C(C)(C)[C@@H](O)[C@H](O)C[C@]6(C)[C@H]5CC(=O)[C@]4(OC2=O)[C@@H]3C1 [Compound 145, cannabifolin E]
- cell viability of RAW 264.7 macrophages [12]: < 70%

Compound: CC(=O)OC1CC(C)C2(CCC3(COC(=O)C3)O2)C2(C)CCCC(C)(C)C12 (stereo not shown) [Compound 99, 9-epivitexnegundin]
- IC50 [13]: > 100 µM
